Patent publication US20160095861A1, “OPHTHALMIC OINTMENTS COMPRISING VALGANCICLOVIR HYDROCHLORIDE FOR TREATING INFECTIVE EYE DISEASES” (SKIRON BIOSCIENCES, priority 2014, published 2016)
Counter-ions that a name gives are not always drawn.

How the values were obtained:
[1] = system: CMV-induced inflammation in the eye; assay: Valganciclovir hydrochloride ophthalmic ointments tested in a patient with CMV-induced inflammation in the eye (Example 4); format: in vivo, human; settings: topical ophthalmic ointment, 1% w/w and 5% w/w, one patient
Experimental: The 1% w/w and 5% w/w valganciclovir hydrochloride ophthalmic ointments were tested in a patient with CMV-induced inflammation in the eye.

[2] = system: hypertensive anterior uveitis associated with clinical signs of cytomegalovirus (CMV) iritis; assay: Case report: topical valganciclovir for hypertensive anterior uveitis with clinical signs of CMV iritis (Example 5); format: in vivo, human
Experimental: Valganciclovir was extracted from the tablet form (450 mg, Valcyte, Roche). Briefly, tablets were dissolved in 0.001N HCl (2 ml per tablet), the insoluble excipients were isolated by centrifugation at 16,000 g, the solution was then filtered through 0.2 μm filter into ice-cold isopropanol (20 ml per tablet) leading to precipitation of the valganciclovir. The precipitate was spun down at 3,000 g, isopropanol was decanted and remaining volatile solvents were removed in the lyophilizer. The identity of valganciclovir was confirmed by liquid chromatography-mass spectrometry (LC-MS). 1% (w/w) valganciclovir ointment in the oleaginous base (20% mineral oil and 80% white petrolatum) was made by following standard compounding practices.
The patient was referred to us […] with chronic low-grade iritis and IOPs that were not adequately managed with medications (prednisolone acetate, brimonidine, and dorzolamide/timolol). Based on the history, pattern of keratic precipitates, mild anterior chamber inflammation, iris atrophy and elevated IOP (25 mmHg in the right eye and 16 mmHg in the left eye) CMV iritis was suspected. […]. PCR of the aqueous was negative for CMV, herpes simplex virus (HSV), and varicella-zoster virus (VZV) DNA.^6 However, because we had previously observed false negative PCR results in a substantial proportion of eyes suspected to have CMV iritis on clinical grounds, we decided to start a course of oral valganciclovir (900 mg twice daily). Within six weeks their IOP returned to normal levels and after 3 months all keratic precipitates completely resolved.
Nine months after the start of valganciclovir therapy, valganciclovir was discontinued and twice daily ganciclovir gel, 0.15%, was started. […] The patient refused to restart oral valganciclovir due to concerns about the toxicity of systemic valganciclovir, and continued with ganciclovir gel, topical corticosteroids, and topical anti-hypertensives.
At this same time, the patient began treating their condition with self-compounded topical valganciclovir. They initially wore a contact lens soaked overnight in 5% valganciclovir and later formulated 5% valganciclovir eye drops, which they administered 2-4 times per day. With this approach the patient's ocular inflammation and IOP improved and surgery was postponed, but the patient still required topical corticosteroids and topical anti-hypertensive medications. After 3 years of controlled inflammation on valganciclovir eye drops, the patient became concerned about medication stability and began formulating 1% valganciclovir ointment in an oleaginous base (80% white petrolatum and 20% mineral oil). […] With long-term use of topical valganciclovir ointment, the patient was able to taper off topical corticosteroids and topical anti-hypertensives and has remained stable since then (9 months).

Structure (SMILES): CC(C)[C@H](N)C(=O)OCC(CO)OCn1cnc2c(=O)nc(N)[nH]c21 (stereo partly drawn) [valganciclovir, valganciclovir hydrochloride]
- control of the inflammation and lowering of the intraocular pressure [1]: effectiveness
- ocular inflammation and intraocular pressure ([2]; oral valganciclovir together with topical corticosteroids): ocular inflammation resolved and intraocular pressure normalized
- disease status after dose reduction ([2]; oral, 450 mg twice daily): the disease remained quiet
- leukopenia (complete blood counts tested periodically) ([2]; oral, 900 mg twice daily): no leukopenia developed
- time until IOP returned to normal levels ([2]; oral, 900 mg twice daily): six
- time until all keratic precipitates completely resolved ([2]; oral, 900 mg twice daily): 3 months
